Measurements taken from ChEMBL document CHEMBL5696442, “Discovery of type II inhibitors of TGFβ-activated kinase 1 (TAK1) and mitogen-activated protein kinase kinase kinase kinase 2 (MAP4K2)” (J Med Chem, 2015).

How the values were obtained:
[1] = target: T1, Atrial natriuretic peptide receptor 2 (Homo sapiens) (UniProt P20594); experiment: Inhibition of ANPb Lys2 labeling site in human A-375 cells at 0.05 uM by KiNativ Profiling analysis relative to control; format: cell-based
T1 sequence (whole entry): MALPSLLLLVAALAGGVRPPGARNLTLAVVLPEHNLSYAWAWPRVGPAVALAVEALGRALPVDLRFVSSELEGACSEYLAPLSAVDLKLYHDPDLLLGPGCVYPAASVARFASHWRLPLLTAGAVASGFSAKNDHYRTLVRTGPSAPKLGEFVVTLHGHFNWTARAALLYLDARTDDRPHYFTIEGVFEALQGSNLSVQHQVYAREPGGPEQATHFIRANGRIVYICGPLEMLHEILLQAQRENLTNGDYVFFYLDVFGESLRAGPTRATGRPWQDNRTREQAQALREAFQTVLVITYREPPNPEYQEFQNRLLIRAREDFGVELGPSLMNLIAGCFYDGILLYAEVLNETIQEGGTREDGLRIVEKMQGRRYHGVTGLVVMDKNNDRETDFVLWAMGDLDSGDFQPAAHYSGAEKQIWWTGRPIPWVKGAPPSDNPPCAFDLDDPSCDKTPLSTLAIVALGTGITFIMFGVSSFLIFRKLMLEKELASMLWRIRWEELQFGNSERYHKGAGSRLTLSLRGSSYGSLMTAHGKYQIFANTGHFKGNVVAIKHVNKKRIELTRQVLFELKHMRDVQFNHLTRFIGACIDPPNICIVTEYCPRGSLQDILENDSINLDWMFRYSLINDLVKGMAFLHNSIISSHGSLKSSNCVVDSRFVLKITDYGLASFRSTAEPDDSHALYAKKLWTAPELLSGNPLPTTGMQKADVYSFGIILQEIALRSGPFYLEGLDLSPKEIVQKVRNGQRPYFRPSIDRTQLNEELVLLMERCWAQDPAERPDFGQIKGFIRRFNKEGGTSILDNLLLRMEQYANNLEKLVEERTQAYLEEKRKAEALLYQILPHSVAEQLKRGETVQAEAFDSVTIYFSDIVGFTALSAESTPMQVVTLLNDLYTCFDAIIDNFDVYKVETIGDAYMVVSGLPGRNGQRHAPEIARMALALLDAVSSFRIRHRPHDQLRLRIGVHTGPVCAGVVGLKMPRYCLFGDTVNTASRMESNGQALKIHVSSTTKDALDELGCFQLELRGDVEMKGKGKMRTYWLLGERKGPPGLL

[2] = target: STE20-like serine/threonine-protein kinase (Homo sapiens) (UniProt Q9H2G2); experiment: Inhibition of SLK Lys1 labeling site in human A-375 cells at 5 uM by KiNativ Profiling analysis relative to control; format: cell-based
STE20-like serine/threonine-protein kinase (Homo sapiens), sequence (Q9H2G2 whole entry, looked up): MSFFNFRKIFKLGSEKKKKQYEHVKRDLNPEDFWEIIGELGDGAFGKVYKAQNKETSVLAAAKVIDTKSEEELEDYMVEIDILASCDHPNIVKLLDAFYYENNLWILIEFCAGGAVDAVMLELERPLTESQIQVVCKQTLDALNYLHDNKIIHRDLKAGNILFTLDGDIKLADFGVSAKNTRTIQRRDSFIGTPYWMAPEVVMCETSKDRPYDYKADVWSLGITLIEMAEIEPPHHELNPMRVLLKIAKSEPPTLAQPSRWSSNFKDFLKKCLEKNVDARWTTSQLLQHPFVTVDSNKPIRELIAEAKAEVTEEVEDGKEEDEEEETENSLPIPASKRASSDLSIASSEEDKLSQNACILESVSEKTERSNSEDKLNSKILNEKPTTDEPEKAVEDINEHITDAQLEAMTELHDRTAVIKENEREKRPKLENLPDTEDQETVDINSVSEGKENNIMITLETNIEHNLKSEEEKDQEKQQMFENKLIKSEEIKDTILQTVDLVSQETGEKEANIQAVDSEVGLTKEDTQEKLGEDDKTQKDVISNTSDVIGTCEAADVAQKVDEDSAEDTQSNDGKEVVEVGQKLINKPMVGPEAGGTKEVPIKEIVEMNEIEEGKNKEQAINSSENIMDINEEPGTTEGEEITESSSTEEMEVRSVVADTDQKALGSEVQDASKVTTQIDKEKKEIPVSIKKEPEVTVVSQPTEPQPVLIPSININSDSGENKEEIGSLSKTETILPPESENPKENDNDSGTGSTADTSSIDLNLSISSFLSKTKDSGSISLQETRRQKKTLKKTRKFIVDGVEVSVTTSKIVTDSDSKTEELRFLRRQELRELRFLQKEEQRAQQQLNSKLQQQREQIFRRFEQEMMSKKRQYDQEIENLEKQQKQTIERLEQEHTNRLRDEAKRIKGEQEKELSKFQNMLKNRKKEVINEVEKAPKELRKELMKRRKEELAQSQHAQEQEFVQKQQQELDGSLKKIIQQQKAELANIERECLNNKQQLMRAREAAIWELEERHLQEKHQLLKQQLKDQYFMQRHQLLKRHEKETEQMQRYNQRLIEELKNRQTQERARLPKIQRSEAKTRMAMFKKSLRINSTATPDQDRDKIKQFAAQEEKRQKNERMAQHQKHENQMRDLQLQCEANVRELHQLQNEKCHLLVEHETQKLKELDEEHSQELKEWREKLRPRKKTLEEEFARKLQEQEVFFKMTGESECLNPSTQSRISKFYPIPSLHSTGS

[3] = target: Microtubule-associated serine/threonine-protein kinase 2 (Homo sapiens) (UniProt Q6P0Q8); experiment: Inhibition of MAST2 Lys2 labeling site in human A-375 cells at 5 uM by KiNativ Profiling analysis relative to control; format: cell-based
Microtubule-associated serine/threonine-protein kinase 2 (Homo sapiens), sequence (Q6P0Q8 whole entry): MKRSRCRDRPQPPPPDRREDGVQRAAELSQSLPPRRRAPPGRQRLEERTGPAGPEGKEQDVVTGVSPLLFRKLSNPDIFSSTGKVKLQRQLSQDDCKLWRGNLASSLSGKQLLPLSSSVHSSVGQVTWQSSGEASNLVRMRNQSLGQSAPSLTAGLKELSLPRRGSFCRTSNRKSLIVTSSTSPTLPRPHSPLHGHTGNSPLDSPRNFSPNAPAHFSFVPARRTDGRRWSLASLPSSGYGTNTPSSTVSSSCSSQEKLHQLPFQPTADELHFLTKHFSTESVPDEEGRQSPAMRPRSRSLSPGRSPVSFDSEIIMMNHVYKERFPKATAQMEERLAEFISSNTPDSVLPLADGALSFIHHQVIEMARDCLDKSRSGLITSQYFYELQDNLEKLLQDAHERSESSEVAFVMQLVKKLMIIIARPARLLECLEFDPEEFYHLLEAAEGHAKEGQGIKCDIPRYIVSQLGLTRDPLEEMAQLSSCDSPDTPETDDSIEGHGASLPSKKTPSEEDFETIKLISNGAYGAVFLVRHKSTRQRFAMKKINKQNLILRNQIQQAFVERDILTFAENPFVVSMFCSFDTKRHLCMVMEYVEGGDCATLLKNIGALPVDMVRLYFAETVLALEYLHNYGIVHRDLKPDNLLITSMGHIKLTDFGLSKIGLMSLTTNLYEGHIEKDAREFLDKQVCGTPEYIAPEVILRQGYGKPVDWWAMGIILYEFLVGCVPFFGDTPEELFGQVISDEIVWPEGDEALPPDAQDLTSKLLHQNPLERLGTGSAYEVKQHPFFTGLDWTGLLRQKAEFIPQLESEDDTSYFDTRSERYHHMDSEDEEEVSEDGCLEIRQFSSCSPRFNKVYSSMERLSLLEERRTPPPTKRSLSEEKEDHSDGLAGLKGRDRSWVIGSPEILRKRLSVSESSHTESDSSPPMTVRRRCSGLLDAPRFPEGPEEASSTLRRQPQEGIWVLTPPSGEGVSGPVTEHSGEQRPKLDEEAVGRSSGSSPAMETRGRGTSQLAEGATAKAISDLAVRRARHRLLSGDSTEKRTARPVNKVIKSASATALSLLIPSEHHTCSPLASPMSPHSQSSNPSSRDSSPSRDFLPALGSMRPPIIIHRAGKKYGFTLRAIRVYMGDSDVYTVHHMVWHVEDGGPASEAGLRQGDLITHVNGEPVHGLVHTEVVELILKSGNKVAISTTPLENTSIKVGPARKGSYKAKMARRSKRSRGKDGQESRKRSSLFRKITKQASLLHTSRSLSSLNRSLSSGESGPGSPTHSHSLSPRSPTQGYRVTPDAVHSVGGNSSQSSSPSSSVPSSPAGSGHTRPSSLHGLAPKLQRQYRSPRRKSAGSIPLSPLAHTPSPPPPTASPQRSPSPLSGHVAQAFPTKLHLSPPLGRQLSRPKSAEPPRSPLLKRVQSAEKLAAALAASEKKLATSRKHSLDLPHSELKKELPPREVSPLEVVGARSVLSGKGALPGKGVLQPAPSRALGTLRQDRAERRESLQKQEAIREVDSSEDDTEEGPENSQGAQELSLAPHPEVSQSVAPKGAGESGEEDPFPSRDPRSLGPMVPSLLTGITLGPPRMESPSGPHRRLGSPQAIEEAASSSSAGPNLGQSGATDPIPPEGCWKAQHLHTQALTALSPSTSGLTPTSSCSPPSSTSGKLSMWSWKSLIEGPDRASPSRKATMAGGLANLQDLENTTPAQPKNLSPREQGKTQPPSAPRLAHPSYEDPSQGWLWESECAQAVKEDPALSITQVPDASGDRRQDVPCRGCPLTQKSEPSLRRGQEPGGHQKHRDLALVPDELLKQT

[4] = target: T2, Mitogen-activated protein kinase kinase kinase 15 (Homo sapiens) (UniProt Q6ZN16); experiment: Inhibition of MAP3K15 Lys1 labeling site harbouring IAIKEIPERDSR in human A-375 cells at 5 uM by KiNativ Profiling analysis relative to control; format: cell-based
T2 sequence (whole entry): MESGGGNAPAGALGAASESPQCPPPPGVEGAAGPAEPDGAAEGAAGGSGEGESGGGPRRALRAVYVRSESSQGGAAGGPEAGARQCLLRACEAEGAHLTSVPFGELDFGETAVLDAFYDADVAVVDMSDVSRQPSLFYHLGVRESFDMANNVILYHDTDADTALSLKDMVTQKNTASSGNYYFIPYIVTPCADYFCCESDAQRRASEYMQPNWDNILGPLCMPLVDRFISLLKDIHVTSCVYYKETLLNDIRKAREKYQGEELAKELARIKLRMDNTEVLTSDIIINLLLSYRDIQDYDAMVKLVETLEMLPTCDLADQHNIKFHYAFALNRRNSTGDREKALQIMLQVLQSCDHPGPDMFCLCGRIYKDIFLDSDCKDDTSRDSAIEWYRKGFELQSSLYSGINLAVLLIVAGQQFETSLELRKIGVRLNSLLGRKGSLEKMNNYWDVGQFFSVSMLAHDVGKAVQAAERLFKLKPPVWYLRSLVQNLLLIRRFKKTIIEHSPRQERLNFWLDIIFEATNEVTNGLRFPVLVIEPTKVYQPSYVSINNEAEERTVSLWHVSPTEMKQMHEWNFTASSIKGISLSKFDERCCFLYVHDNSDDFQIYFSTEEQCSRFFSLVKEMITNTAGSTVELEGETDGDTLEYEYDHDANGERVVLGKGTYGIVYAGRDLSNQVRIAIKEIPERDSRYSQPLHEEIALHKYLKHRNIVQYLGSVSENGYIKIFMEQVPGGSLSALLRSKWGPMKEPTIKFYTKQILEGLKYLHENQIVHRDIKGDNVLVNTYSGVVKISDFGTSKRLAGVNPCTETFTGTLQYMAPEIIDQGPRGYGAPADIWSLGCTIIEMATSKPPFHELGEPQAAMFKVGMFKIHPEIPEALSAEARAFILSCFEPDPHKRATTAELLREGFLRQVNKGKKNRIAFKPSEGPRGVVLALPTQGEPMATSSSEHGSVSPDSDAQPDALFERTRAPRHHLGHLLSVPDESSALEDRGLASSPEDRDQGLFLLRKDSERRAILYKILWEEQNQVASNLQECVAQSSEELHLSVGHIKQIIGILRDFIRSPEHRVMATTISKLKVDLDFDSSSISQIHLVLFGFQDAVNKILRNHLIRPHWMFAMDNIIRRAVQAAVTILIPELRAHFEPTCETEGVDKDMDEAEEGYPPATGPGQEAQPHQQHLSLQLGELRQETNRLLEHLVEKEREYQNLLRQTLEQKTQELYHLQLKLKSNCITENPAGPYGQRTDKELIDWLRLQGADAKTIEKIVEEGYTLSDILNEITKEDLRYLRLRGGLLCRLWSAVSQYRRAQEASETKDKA

[5] = target: Serine/threonine-protein kinase 4 (Homo sapiens) (UniProt Q13043); experiment: Inhibition of MST1 Lys1 labeling site harbouring ETGQIVAIKQVPVESDLQEIIK in human Huh-7 cells at 1 uM by KiNativ Profiling analysis relative to control
Serine/threonine-protein kinase 4 (Homo sapiens), sequence (Q13043 whole entry, looked up): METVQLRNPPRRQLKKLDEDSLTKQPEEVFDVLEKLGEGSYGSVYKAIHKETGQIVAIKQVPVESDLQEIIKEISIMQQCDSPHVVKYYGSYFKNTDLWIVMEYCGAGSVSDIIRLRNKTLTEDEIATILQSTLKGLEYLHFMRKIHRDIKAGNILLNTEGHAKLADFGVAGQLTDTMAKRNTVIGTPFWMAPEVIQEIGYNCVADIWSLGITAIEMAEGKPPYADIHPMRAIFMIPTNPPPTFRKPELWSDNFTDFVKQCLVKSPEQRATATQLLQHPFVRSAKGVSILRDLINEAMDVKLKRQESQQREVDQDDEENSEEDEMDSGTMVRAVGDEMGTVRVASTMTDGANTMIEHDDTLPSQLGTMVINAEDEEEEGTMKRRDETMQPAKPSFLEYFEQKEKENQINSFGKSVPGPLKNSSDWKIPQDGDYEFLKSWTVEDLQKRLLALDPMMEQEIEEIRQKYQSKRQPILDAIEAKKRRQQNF

How did the inhibition [1] turn out when `CCN1CCN(Cc2ccc(NC(=O)c3ccc(C)c(/C=C/c4cnc5[nH]ccc5c4OC)c3)cc2C(F)(F)F)CC1` was run?
The inhibition was -8.7%.

How did the inhibition [2] turn out when `CCN1CCN(Cc2ccc(NC(=O)c3ccc(C)c(Oc4ccnc5[nH]ccc45)c3)cc2C(F)(F)F)CC1` was run?
The inhibition was 34.6%.

And the inhibition [3]?
The inhibition was -6.1%.

What about the inhibition [4] of the same compound?
The inhibition was -3.2%.

With `CNc1cc(Oc2cc(C(=O)Nc3cc(N4CCN(C)CC4)cc(C(F)(F)F)c3)ccc2C)ncn1` as the compound, how does the inhibition [5] read?
The inhibition was 8.9%.
